The values below come from ChEMBL document CHEMBL1136346, “Synthesis of linked carbohydrates and evaluation of their binding for 16S RNA by mass spectrometry” (Bioorg Med Chem Lett, 2003).

Each structure is given as a SMILES string.

A short description of this assay: Binding affinity against bacterial 16S rRNA using mass spectrometry based assay. On the set-up: species or system Escherichia coli.
In general, Kd refers to the equilibrium constant for the complex coming apart. A lower Kd goes with a tighter complex. Compound `CN(CCCCCCN(C)CC(O)CO[C@H]1O[C@H](CN)[C@@H](O)[C@H](O)[C@H]1N)CC(O)CO[C@@H]1O[C@H](CN)[C@@H](O)[C@H](O)[C@H]1N` (stereo partly drawn) came in with a dissociation constant Kd of 11 µM.
`NC[C@H]1O[C@H](OCC(O)CN2CCN(CC(O)CO[C@H]3O[C@H](CN)[C@@H](O)[C@H](O)[C@H]3N)CC2)[C@H](N)[C@@H](O)[C@@H]1O` (stereo partly drawn): the affinity, expressed as Kd, was 32 µM.
Next, `CN(CCN(C)CC(O)CO[C@H]1[C@H](O)[C@@H](O)[C@H](N)C[C@@H]1N)CC(O)CO[C@H]1[C@H](O)[C@@H](O)[C@H](N)C[C@@H]1N` (stereo partly drawn): 57 µM.
Then `CN(CCN(C)CC(O)CO[C@H]1O[C@H](CN)[C@@H](O)[C@H](O)[C@H]1N)CC(O)CO[C@@H]1O[C@H](CN)[C@@H](O)[C@H](O)[C@H]1N` (stereo partly drawn), with 20 µM; and `CN(CCCCN(C)CC(O)CO[C@H]1[C@H](O)[C@@H](O)[C@H](N)C[C@@H]1N)CC(O)CO[C@H]1O[C@H](CO)[C@@H](O)[C@H](O)[C@H]1N` (stereo partly drawn), with 54 µM.
Next, `N[C@@H]1C[C@H](N)[C@@H](OC(=O)CCCC(=O)O[C@H]2[C@H](O)[C@@H](O)[C@H](N)C[C@@H]2N)[C@H](O)[C@H]1O`: 105 µM.
Turning to `CN(CCCCCCN(C)CC(O)CO[C@H]1[C@H](O)[C@@H](O)[C@H](N)C[C@@H]1N)CC(O)CO[C@H]1O[C@H](CO)[C@@H](O)[C@H](O)[C@H]1N` (stereo partly drawn), the Kd came to 39 µM.
In turn, `C=CCO[C@H]1O[C@H](CN)C(O)[C@H](O)[C@H]1N` (stereo partly drawn) registered an equilibrium dissociation constant (Kd) of 327 µM. This Kd lies about 8.4-fold higher than the previous one.
In turn, `CN(CCCCN(C)CC(O)CO[C@H]1[C@H](O)[C@@H](O)[C@H](N)C[C@@H]1N)CC(O)CO[C@H]1[C@H](O)[C@@H](O)[C@H](N)C[C@@H]1N` (stereo partly drawn) had a Kd of 16 µM.
`CN(CCCCCCN(C)CC(O)CO[C@H]1[C@H](O)[C@@H](O)[C@H](N)C[C@@H]1N)CC(O)CO[C@H]1[C@H](O)[C@@H](O)[C@H](N)C[C@@H]1N` (stereo partly drawn) returned a dissociation constant Kd of 21 µM.
In turn, `CN(CCCCN(C)CC(O)CO[C@@H]1[C@@H](O)[C@H](N)C[C@H](N)[C@H]1O)CC(O)CO[C@H]1O[C@H](CN)[C@@H](O)[C@H](O)[C@H]1N` (stereo partly drawn) showed a Kd of 25 µM.
Then `N[C@@H]1C[C@H](N)[C@@H](O)[C@H](OCC(O)CNCCCCNCC(O)CO[C@@H]2[C@@H](O)[C@H](N)C[C@H](N)[C@H]2O)[C@H]1O` (stereo partly drawn), with 96 µM; and `N[C@@H]1C[C@H](N)[C@@H](O)[C@H](O)[C@H]1O`, with 130 µM; and `CN(CCN(C)CC(O)CO[C@H]1[C@H](O)[C@@H](O)[C@H](N)C[C@@H]1N)CC(O)CO[C@H]1O[C@H](CO)[C@@H](O)[C@H](O)[C@H]1N` (stereo partly drawn), with 335 µM.
Next, `CN(CCCCCCN(C)CC(O)CO[C@H]1O[C@H](CO)[C@@H](O)[C@H](O)[C@H]1N)CC(O)CO[C@@H]1O[C@H](CO)[C@@H](O)[C@H](O)[C@H]1N` (stereo partly drawn): 52 µM; `CN(CCCCN(C)CC(O)CO[C@@H]1[C@@H](O)[C@H](N)C[C@H](N)[C@H]1O)CC(O)CO[C@H]1O[C@H](CO)[C@@H](O)[C@H](O)[C@H]1N` (stereo partly drawn): 29 µM.
In the case of `CN(CCN(C)CC(O)CO[C@H]1O[C@H](CO)[C@@H](O)[C@H](O)[C@H]1N)CC(O)CO[C@@H]1O[C@H](CO)[C@@H](O)[C@H](O)[C@H]1N` (stereo partly drawn), binding was put at a Kd of 146 µM.
Then `C=CCO[C@H]1O[C@H](CO)[C@@H](O)[C@H](O)[C@H]1N`, with 1590 µM; and `CN(CCCCN(C)CC(O)CO[C@H]1[C@H](O)[C@@H](O)[C@H](N)C[C@@H]1N)CC(O)CO[C@H]1O[C@H](CN)[C@@H](O)[C@H](O)[C@H]1N` (stereo partly drawn), with 13 µM.
Next, `CN(CCCCCCN(C)CC(O)CO[C@H]1[C@H](O)[C@@H](O)[C@H](N)C[C@@H]1N)CC(O)CO[C@H]1O[C@H](CN)[C@@H](O)[C@H](O)[C@H]1N` (stereo partly drawn): 32 µM; `CN(CCCCN(C)CC(O)CO[C@H]1O[C@H](CO)[C@@H](O)[C@H](O)[C@H]1N)CC(O)CO[C@@H]1O[C@H](CO)[C@@H](O)[C@H](O)[C@H]1N` (stereo partly drawn): 45 µM.
Compound `CN(CCN(C)CC(O)CO[C@H]1[C@H](O)[C@@H](O)[C@H](N)C[C@@H]1N)CC(O)CO[C@H]1O[C@H](CN)[C@@H](O)[C@H](O)[C@H]1N` (stereo partly drawn) had a Kd of 47 µM. This Kd and that of the compound before are within 1.5-fold of each other.
Next, `CN(CCCCN(C)CC(O)CO[C@H]1O[C@H](CN)[C@@H](O)[C@H](O)[C@H]1N)CC(O)CO[C@@H]1O[C@H](CN)[C@@H](O)[C@H](O)[C@H]1N` (stereo partly drawn): 16 µM.
